In the NIST ThermoML archive (doi:10.1016/j.jct.2008.07.011):
Numbers after ± are expanded uncertainties.

Experiment: osmotic coefficient (dimensionless); mn = molality of the nth substance listed, in mol/kg
Settings: Liquid, vapor pressure osmometry

## CCC[n+]1ccn(C)c1.[Br-] [1-methyl-3-propylimidazolium bromide] + O
298.15 K, m1 = 0.0071
  osmotic coefficient: 0.942 ± 0.038
298.15 K, m1 = 0.0141
  osmotic coefficient: 0.917 ± 0.037
298.15 K, m1 = 0.0243
  osmotic coefficient: 0.903 ± 0.036
298.15 K, m1 = 0.0338
  osmotic coefficient: 0.894 ± 0.036
298.15 K, m1 = 0.0462
  osmotic coefficient: 0.89 ± 0.036
298.15 K, m1 = 0.0667
  osmotic coefficient: 0.865 ± 0.035
298.15 K, m1 = 0.0898
  osmotic coefficient: 0.855 ± 0.035
298.15 K, m1 = 0.1081
  osmotic coefficient: 0.839 ± 0.034
298.15 K, m1 = 0.1529
  osmotic coefficient: 0.82 ± 0.033
298.15 K, m1 = 0.194
  osmotic coefficient: 0.807 ± 0.033
298.15 K, m1 = 0.2403
  osmotic coefficient: 0.798 ± 0.033
298.15 K, m1 = 0.3018
  osmotic coefficient: 0.783 ± 0.032
298.15 K, m1 = 0.3677
  osmotic coefficient: 0.762 ± 0.032
298.15 K, m1 = 0.4338
  osmotic coefficient: 0.755 ± 0.031
298.15 K, m1 = 0.5359
  osmotic coefficient: 0.742 ± 0.031
298.15 K, m1 = 0.8595
  osmotic coefficient: 0.706 ± 0.03
298.15 K, m1 = 1.029
  osmotic coefficient: 0.702 ± 0.03
298.15 K, m1 = 1.604
  osmotic coefficient: 0.674 ± 0.029
298.15 K, m1 = 2.104
  osmotic coefficient: 0.676 ± 0.029
298.15 K, m1 = 2.705
  osmotic coefficient: 0.671 ± 0.029
308.15 K, m1 = 0.0071
  osmotic coefficient: 0.928 ± 0.037
308.15 K, m1 = 0.0141
  osmotic coefficient: 0.925 ± 0.037
308.15 K, m1 = 0.0243
  osmotic coefficient: 0.902 ± 0.036
308.15 K, m1 = 0.0338
  osmotic coefficient: 0.904 ± 0.036
308.15 K, m1 = 0.0462
  osmotic coefficient: 0.892 ± 0.036
308.15 K, m1 = 0.0667
  osmotic coefficient: 0.875 ± 0.035
308.15 K, m1 = 0.0898
  osmotic coefficient: 0.864 ± 0.035
308.15 K, m1 = 0.1081
  osmotic coefficient: 0.851 ± 0.034
308.15 K, m1 = 0.1529
  osmotic coefficient: 0.835 ± 0.034
308.15 K, m1 = 0.194
  osmotic coefficient: 0.816 ± 0.033
308.15 K, m1 = 0.2403
  osmotic coefficient: 0.802 ± 0.033
308.15 K, m1 = 0.3018
  osmotic coefficient: 0.792 ± 0.033
308.15 K, m1 = 0.3677
  osmotic coefficient: 0.772 ± 0.032
308.15 K, m1 = 0.4338
  osmotic coefficient: 0.761 ± 0.032
308.15 K, m1 = 0.5359
  osmotic coefficient: 0.749 ± 0.031
308.15 K, m1 = 0.8595
  osmotic coefficient: 0.72 ± 0.03
308.15 K, m1 = 1.029
  osmotic coefficient: 0.714 ± 0.03
308.15 K, m1 = 1.604
  osmotic coefficient: 0.696 ± 0.03
308.15 K, m1 = 2.104
  osmotic coefficient: 0.69 ± 0.03
308.15 K, m1 = 2.705
  osmotic coefficient: 0.683 ± 0.03
318.15 K, m1 = 0.0071
  osmotic coefficient: 0.961 ± 0.038
318.15 K, m1 = 0.0141
  osmotic coefficient: 0.951 ± 0.038
318.15 K, m1 = 0.0243
  osmotic coefficient: 0.925 ± 0.037
318.15 K, m1 = 0.0338
  osmotic coefficient: 0.92 ± 0.037
318.15 K, m1 = 0.0462
  osmotic coefficient: 0.91 ± 0.037
318.15 K, m1 = 0.0667
  osmotic coefficient: 0.898 ± 0.036
318.15 K, m1 = 0.0898
  osmotic coefficient: 0.874 ± 0.035
318.15 K, m1 = 0.1081
  osmotic coefficient: 0.867 ± 0.035
318.15 K, m1 = 0.1529
  osmotic coefficient: 0.857 ± 0.035
318.15 K, m1 = 0.194
  osmotic coefficient: 0.836 ± 0.034
318.15 K, m1 = 0.2403
  osmotic coefficient: 0.812 ± 0.033
318.15 K, m1 = 0.3018
  osmotic coefficient: 0.805 ± 0.033
318.15 K, m1 = 0.3677
  osmotic coefficient: 0.793 ± 0.033
318.15 K, m1 = 0.4338
  osmotic coefficient: 0.776 ± 0.032
318.15 K, m1 = 0.5359
  osmotic coefficient: 0.753 ± 0.031
318.15 K, m1 = 0.8595
  osmotic coefficient: 0.728 ± 0.031
318.15 K, m1 = 1.029
  osmotic coefficient: 0.717 ± 0.03
318.15 K, m1 = 1.604
  osmotic coefficient: 0.702 ± 0.03
318.15 K, m1 = 2.104
  osmotic coefficient: 0.694 ± 0.03
318.15 K, m1 = 2.705
  osmotic coefficient: 0.701 ± 0.03
328.15 K, m1 = 0.0071
  osmotic coefficient: 0.947 ± 0.038
328.15 K, m1 = 0.0141
  osmotic coefficient: 0.95 ± 0.038
328.15 K, m1 = 0.0243
  osmotic coefficient: 0.924 ± 0.037
328.15 K, m1 = 0.0338
  osmotic coefficient: 0.926 ± 0.037
328.15 K, m1 = 0.0462
  osmotic coefficient: 0.91 ± 0.037
328.15 K, m1 = 0.0667
  osmotic coefficient: 0.896 ± 0.036
328.15 K, m1 = 0.0898
  osmotic coefficient: 0.875 ± 0.035
328.15 K, m1 = 0.1081
  osmotic coefficient: 0.864 ± 0.035
328.15 K, m1 = 0.1529
  osmotic coefficient: 0.851 ± 0.034
328.15 K, m1 = 0.194
  osmotic coefficient: 0.842 ± 0.034
328.15 K, m1 = 0.2403
  osmotic coefficient: 0.818 ± 0.033
328.15 K, m1 = 0.3018
  osmotic coefficient: 0.813 ± 0.033
328.15 K, m1 = 0.3677
  osmotic coefficient: 0.794 ± 0.033
328.15 K, m1 = 0.4338
  osmotic coefficient: 0.787 ± 0.032
328.15 K, m1 = 0.5359
  osmotic coefficient: 0.76 ± 0.032
328.15 K, m1 = 0.8595
  osmotic coefficient: 0.735 ± 0.031
328.15 K, m1 = 1.029
  osmotic coefficient: 0.724 ± 0.031
328.15 K, m1 = 1.604
  osmotic coefficient: 0.704 ± 0.03
328.15 K, m1 = 2.104
  osmotic coefficient: 0.701 ± 0.03
328.15 K, m1 = 2.705
  osmotic coefficient: 0.709 ± 0.03
